What all share (format): biochemical
Assay [1] has as its target T1, JAK3 (Homo sapiens, UniProt P52333).
T1 sequence (P52333 1-1124): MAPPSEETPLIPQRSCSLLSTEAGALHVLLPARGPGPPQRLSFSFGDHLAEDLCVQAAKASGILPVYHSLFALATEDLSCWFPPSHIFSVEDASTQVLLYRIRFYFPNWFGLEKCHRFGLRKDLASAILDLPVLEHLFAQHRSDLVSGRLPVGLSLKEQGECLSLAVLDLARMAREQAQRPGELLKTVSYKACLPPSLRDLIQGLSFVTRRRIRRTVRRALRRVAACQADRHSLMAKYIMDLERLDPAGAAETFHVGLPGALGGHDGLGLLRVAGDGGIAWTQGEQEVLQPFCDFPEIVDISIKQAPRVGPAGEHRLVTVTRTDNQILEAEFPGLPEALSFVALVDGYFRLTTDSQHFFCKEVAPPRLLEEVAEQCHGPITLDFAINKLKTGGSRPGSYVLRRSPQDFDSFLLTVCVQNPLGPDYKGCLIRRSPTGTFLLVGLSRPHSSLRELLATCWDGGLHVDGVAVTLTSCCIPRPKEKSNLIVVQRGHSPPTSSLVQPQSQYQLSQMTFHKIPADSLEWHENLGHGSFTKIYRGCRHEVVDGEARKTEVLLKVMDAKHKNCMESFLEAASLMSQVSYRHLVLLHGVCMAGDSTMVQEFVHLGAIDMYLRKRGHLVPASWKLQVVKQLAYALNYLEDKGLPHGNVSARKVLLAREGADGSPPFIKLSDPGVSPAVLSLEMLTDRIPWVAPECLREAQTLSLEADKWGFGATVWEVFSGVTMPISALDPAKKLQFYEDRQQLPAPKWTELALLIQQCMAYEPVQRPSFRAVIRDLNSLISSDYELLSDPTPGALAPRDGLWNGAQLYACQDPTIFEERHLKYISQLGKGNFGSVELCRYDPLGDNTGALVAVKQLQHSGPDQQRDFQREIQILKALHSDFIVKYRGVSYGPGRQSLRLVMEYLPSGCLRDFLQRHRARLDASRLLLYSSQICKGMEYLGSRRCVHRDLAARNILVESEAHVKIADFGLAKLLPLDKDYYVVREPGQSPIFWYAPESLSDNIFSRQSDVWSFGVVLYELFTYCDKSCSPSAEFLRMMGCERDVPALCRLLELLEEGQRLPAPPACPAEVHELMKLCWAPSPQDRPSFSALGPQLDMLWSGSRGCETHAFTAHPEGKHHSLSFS
The assay is described as follows: Inhibition of a panel of kinases, in vitro HotSpot kinase assay: JAK3. As to conditions: read-out: IC50 JAK3.

The target in assay [2] is EGFR (Homo sapiens, UniProt P00533). The assay is described as follows: Inhibition of a panel of kinases, in vitro HotSpot kinase assay: EGFR. As to the method: (§1) The degree of inhibition of a panel of kinases is determined using the in vitro HotSpot kinase assay (purified enzymes, ^33P-ATP, an appropriate substrate and 1 μM ATP).
Sequence of EGFR (P00533 25-1210): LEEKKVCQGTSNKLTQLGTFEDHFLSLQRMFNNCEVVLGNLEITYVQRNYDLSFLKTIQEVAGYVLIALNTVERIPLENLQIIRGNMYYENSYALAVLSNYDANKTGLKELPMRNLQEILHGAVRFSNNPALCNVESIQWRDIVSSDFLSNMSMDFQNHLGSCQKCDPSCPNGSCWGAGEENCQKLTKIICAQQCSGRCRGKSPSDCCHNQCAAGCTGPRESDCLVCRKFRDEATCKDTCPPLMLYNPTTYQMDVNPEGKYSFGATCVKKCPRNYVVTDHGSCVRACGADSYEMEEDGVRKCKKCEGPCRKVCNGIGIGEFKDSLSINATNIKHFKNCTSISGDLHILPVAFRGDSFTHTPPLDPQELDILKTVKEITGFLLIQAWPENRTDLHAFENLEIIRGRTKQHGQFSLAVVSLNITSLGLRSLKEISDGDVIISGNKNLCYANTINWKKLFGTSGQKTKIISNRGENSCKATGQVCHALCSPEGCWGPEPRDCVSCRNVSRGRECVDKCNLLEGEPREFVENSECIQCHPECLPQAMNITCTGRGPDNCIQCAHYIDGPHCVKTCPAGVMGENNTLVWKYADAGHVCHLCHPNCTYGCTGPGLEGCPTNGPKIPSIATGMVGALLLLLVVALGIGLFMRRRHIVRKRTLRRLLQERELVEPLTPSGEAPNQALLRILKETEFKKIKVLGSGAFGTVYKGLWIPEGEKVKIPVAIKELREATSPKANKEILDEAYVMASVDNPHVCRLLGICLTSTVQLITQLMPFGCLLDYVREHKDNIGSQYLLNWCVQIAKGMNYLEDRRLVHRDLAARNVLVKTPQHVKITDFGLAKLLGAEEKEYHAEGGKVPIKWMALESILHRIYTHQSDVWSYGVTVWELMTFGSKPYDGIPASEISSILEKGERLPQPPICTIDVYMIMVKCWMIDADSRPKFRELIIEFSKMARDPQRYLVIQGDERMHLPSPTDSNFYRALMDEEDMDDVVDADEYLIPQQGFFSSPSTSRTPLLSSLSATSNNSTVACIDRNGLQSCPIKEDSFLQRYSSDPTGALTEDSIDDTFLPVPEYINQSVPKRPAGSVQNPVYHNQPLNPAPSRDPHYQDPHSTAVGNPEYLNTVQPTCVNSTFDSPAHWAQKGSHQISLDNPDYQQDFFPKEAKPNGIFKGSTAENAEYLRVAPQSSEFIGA
Assay [3] deals with SRC (Homo sapiens, UniProt P12931). Description: Inhibition of a panel of kinases, in vitro HotSpot kinase assay: SRC. Here is the method:
as §1

The target of assay [4] is T2, TEC (Homo sapiens, UniProt P42680).
T2 sequence (P42680 1-631): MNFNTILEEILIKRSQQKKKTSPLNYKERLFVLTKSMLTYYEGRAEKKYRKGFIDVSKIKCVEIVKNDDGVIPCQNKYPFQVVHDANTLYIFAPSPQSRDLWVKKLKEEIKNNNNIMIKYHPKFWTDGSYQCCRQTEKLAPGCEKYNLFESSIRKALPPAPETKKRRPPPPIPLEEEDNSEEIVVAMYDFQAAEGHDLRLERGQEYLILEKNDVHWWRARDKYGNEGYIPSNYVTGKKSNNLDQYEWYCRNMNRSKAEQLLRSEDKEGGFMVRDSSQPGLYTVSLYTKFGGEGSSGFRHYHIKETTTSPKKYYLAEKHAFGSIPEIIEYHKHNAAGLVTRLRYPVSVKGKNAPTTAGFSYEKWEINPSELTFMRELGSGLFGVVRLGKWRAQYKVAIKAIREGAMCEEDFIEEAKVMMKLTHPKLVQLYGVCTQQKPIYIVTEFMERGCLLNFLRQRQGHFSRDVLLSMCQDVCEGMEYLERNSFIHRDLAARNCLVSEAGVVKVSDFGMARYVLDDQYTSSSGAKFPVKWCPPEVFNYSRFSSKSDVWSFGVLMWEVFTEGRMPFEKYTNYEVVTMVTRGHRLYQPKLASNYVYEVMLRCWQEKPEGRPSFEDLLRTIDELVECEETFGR
Description: Inhibition of a panel of kinases, in vitro HotSpot kinase assay: TEC. As to the method: as §1

The mark [5] stands for this setting: Table 13, A compounds, 1 μM ATP.

The values that follow come from US20210070748A1, “INHIBITORS OF BRUTONS TYROSINE KINASE” (Pharmacyclics LLC, priority 2015, published 2021).

Where two headings read alike, the source gives them in different places. Some results are limits rather than exact numbers.

Sequence of SRC (P12931 whole entry): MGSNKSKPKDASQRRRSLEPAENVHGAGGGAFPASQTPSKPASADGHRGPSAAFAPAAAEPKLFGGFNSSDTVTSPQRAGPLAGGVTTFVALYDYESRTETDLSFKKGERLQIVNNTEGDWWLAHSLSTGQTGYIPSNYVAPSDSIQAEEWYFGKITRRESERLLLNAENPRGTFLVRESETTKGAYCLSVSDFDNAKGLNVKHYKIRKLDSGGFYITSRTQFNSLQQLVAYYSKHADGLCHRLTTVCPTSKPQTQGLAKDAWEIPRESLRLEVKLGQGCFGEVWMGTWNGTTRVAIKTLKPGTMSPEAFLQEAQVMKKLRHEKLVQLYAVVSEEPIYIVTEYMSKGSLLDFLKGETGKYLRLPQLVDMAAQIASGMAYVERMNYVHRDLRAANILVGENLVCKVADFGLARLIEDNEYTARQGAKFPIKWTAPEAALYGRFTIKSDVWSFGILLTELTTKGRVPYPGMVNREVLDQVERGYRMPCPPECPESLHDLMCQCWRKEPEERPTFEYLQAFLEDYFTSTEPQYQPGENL

By IC50 is commonly meant the concentration that gives 50% inhibition. With `C[C@@H]1[C@H](NC(=O)c2ccc(C(=O)N(C)C)cc2)CCCN1c1cnc(C(N)=O)c(Nc2cnn(C)c2)n1` [Example E-138, N1-((2R,3R)-1-(5-carbamoyl-6-((1-methyl-1H-pyrazol-4-yl)amino)pyrazin-2-yl)-2-methylpiperidin-3-yl)-N4,N4-dimethylterephthalamide], the concentration for half-maximal inhibition (IC50) in assay [1] (E compounds, Table 17) was 100 to 1000 nM; in assay [2] (E compounds, Table 17) it was 100 to 1000 nM; in assay [3] (E compounds, Table 17), 10 to 100 nM; in assay [4] (E compounds, Table 17), no more than 10 nM.
On to `C[C@@H]1[C@H](NC(=O)c2ccc(C3CC3)cc2)CCCN1c1cnc(C(N)=O)c(Nc2cnn(C3CCN(C)CC3)c2)n1` [Example A-173], for which the IC50 is 1000 to 10000 nM in assay [1] (setting [5]), 100 to 1000 nM in assay [2] (setting [5]), 10 to 100 nM in assay [3] (setting [5]) and 10 to 100 nM in assay [4] (setting [5]).
`Cn1cc(Nc2nc(N3C[C@H](NC(=O)c4ccc(C5CC5)cc4)CC(F)(F)C3)cnc2C(N)=O)cn1` [Example A-188, (R)-5-(5-(4-cyclopropylbenzamido)-3,3-difluoropiperidin-1-yl)-3-(1-methyl-1H-pyrazol-4-ylamino)pyrazine-2-carboxamide]: the concentration for half-maximal inhibition (IC50) in assay [1] (setting [5]) lay in the range of 1000 to 10000 nM; in assay [2] (setting [5]) it was 1000 to 10000 nM; in assay [3] (setting [5]), 100 to 1000 nM; in assay [4] (setting [5]), 100 to 1000 nM.
With `C[C@@H]1[C@H](NC(=O)c2ccc(C3CC3)c(Cl)c2)CCCN1c1cnc(C(N)=O)c(Nc2ccc(N3CCN(C)CC3)cc2)n1` [Example A-189, 5-((2R,3R)-3-(3-chloro-4-cyclopropylbenzamido)-2-methylpiperidin-1-yl)-3-(4-(4-methylpiperazin-1-yl)phenylamino)pyrazine-2-carboxamide], the half-inhibitory concentration (IC50) in assay [1] (setting [5]) lay in the range of 1000 to 10000 nM; in assay [2] (setting [5]) it was 1000 to 10000 nM; in assay [3] (setting [5]), 100 to 1000 nM; in assay [4] (setting [5]), 100 to 1000 nM.
As for `C=CC(=O)N1CC[C@@H](N(C)c2cnc(C(N)=O)c(Nc3ccc(C4CCN(C5CC5)CC4)cc3)n2)C1` [Example E-121, (R)-5-((1-acryloylpyrrolidin-3-yl)(methyl)amino)-3-(4-(1-cyclopropylpiperidin-4-yl)phenylamino)pyrazine-2-carboxamide], the concentration for half-maximal inhibition (IC50) in assay [1] (E compounds, Table 17) is less than 10 nM; in assay [2] (E compounds, Table 17), no more than 10 nM; in assay [3] (E compounds, Table 17), 10 to 100 nM; in assay [4] (E compounds, Table 17) it was no more than 10 nM.
For `C[C@@H]1[C@H](NC(=O)c2ccc(C3CC3)cc2)CCCN1c1cnc(C(N)=O)c(Nc2cnc(C3CCOCC3)nc2)n1` [Example E-144, 5-((2R,3R)-3-(4-cyclopropylbenzamido)-2-methylpiperidin-1-yl)-3-((2-(tetrahydro-2H-pyran-4-yl)pyrimidin-5-yl)amino)pyrazine-2-carboxamide], the IC50 was greater than 10000 nM in assay [1] (E compounds, Table 17); greater than 10000 nM in assay [2] (E compounds, Table 17); 100 to 1000 nM in assay [3] (E compounds, Table 17); 100 to 1000 nM in assay [4] (E compounds, Table 17).
As to `C[C@@H]1[C@H](NC(=O)c2ccc(C3CC3)cc2F)CCCN1c1cnc(C(N)=O)c(Nc2nc3c(s2)CN(C)CC3)n1` [Example A-108, 5-[(2R,3R)-3-(4-cyclopropyl-2-fluorobenzamido)-2-methylpiperidin-1-yl]-3-({5-methyl-4H,5H,6H,7H-[1,3]thiazolo[5,4-c]pyridin-2-yl}amino)pyrazine-2-carboxamide], the IC50 is greater than 10000 nM in assay [1] (setting [5]), greater than 10000 nM in assay [2] (setting [5]), greater than 10000 nM in assay [3] (setting [5]) and 100 to 1000 nM in assay [4] (setting [5]).
On to `CCC(O)(CC)c1ccc(C(=O)N[C@@H]2CCCN(c3cnc(C(N)=O)c(Nc4cnn(C)c4)n3)[C@@H]2C)cc1` [Example E-151, 5-((2R,3R)-3-(4-(3-hydroxypentan-3-yl)benzamido)-2-methylpiperidin-1-yl)-3-((1-methyl-1H-pyrazol-4-yl)amino)pyrazine-2-carboxamide], for which the IC50 in assay [1] (E compounds, Table 17) is 100 to 1000 nM; in assay [2] (E compounds, Table 17), 100 to 1000 nM; in assay [3] (E compounds, Table 17) it was 10 to 100 nM; in assay [4] (E compounds, Table 17), no more than 10 nM.
Regarding `C[C@@H]1[C@H](NC(=O)c2ccc(C3CC3)cc2F)CCCN1c1cnc(C(N)=O)c(Nc2ccc(N3CCN(C)C[C@@H]3C)cc2)n1` [Example A-176, 5-[(2R,3R)-3-(4-cyclopropyl-2-fluorobenzamido)-2-methylpiperidin-1-yl]-3-({4-[(2S)-2,4-dimethylpiperazin-1-yl]phenyl}amino)pyrazine-2-carboxamide], the half-maximal inhibitory concentration (IC50) was in the range of 100 to 1000 nM in assay [1] (setting [5]), 100 to 1000 nM in assay [2] (setting [5]), 100 to 1000 nM in assay [3] (setting [5]) and 10 to 100 nM in assay [4] (setting [5]).
As to `Cc1cc(Nc2nc(N3CC[C@H](O)[C@@H](N4CCC[C@@H](Nc5cc(Cl)cc(C(F)(F)F)c5)C4=O)C3)nnc2C(N)=O)sn1` [Example E-10, 3-((3R,3'S,4'S)-3-(3-chloro-5-(trifluoromethyl)phenylamino)-4′-hydroxy-2-oxo-1,3′-bipiperidin-1-yl)-5-(3-methylisothiazol-5-ylamino)-1,2,4-triazine-6-carboxamide], the IC50 in assay [1] (E compounds, Table 17) is 1000 to 10000 nM; in assay [2] (E compounds, Table 17), 10 to 100 nM; in assay [3] (E compounds, Table 17), no more than 10 nM; in assay [4] (E compounds, Table 17), 10 to 100 nM.
In the case of `Cn1cc(Nc2nc(N3CCC4CCN(C(=O)c5ccc(C6CC6)cc5)C4C3)cnc2C(N)=O)cn1` (centres unmarked) [Example E-141, 5-(1-(4-cyclopropylbenzoyl)octahydro-6H-pyrrolo[2,3-c]pyridin-6-yl)-3-((1-methyl-3H-pyrazol-4-yl)amino)pyrazine-2-carboxamide], the concentration for half-maximal inhibition (IC50) in assay [1] (E compounds, Table 17) fell in the range of 1000 to 10000 nM; in assay [2] (E compounds, Table 17) it was 100 to 1000 nM; in assay [3] (E compounds, Table 17) it was 100 to 1000 nM; in assay [4] (E compounds, Table 17), 100 to 1000 nM.
For the compound `C[C@@H]1[C@H](NC(=O)c2ccc(C3CC3)cc2Cl)CCCN1c1cnc(C(N)=O)c(Nc2ccc(N3CCN(C)CC3)cc2)n1` [Example A-180, 5-[(2R,3R)-3-(2-chloro-4-cyclopropylbenzamido)-2-methylpiperidin-1-yl]-3-{[4-(4-methylpiperazin-1-yl)phenyl]amino}pyrazine-2-carboxamide], the IC50 is 1000 to 10000 nM in assay [1] (setting [5]), 100 to 1000 nM in assay [2] (setting [5]), 100 to 1000 nM in assay [3] (setting [5]) and 10 to 100 nM in assay [4] (setting [5]).
Take `CN1CCN(c2ccc(Nc3nc(N4CCC[C@@H](n5ccc6cc(C7CC7)cc(F)c6c5=O)C4)cnc3C(N)=O)cc2)CC1` [Example A-133, 5-[(3R)-3-(6-cyclo-propyl-8-fluoro-1-oxo-1,2-dihydroisoquinolin-2-yl)piperidin-1-yl]-3-{[4-(4-methylpiperazin-1-yl)phenyl]amino}pyrazine-2-carboxamide]: the 50% inhibitory concentration (IC50) in assay [1] (setting [5]) fell in the range of 100 to 1000 nM; in assay [2] (setting [5]) it was 100 to 1000 nM; in assay [3] (setting [5]), 10 to 100 nM; in assay [4] (setting [5]), 10 to 100 nM.
Turning to `C=CC(=O)N1CC[C@@H](N(C)c2nnc(C(N)=O)c(Nc3ccc(C(C)C)cc3)n2)C1` [Example E-26, (R)-3-((1-acryloylpyrrolidin-3-yl)(methyl)amino)-5-(4-isopropylphenylamino)-1,2,4-triazine-6-carboxamide], the IC50 is less than 10 nM in assay [1] (E compounds, Table 17); no more than 10 nM in assay [2] (E compounds, Table 17); 10 to 100 nM in assay [3] (E compounds, Table 17); no more than 10 nM in assay [4] (E compounds, Table 17).
